Test results: patent US20070092907A1, “Methods of screening compound probes” (priority 2005, published 2007)
“Also recorded” adds a separate entry of the source.

Columns and labels:
rat glioma C6 cells = assay: C6 cell uptake of phosphonium cations determined by MALDI-TOF-MS; type: cell-based; settings: for percent cell uptake: plateau at ~90 minute after incubation; for cell uptake / accumulation (in words): up to 90 min
Method: MALDI-TOF Mass Spectrometry: MALIDI-TOF-MS experiments were performed on a Perseptive Voyager-DE RP Biospectrometry instrument (Framingham, Mass.). On the MALDI-TOF-MS target plate, 1 μL each of sample solution and 1 μL of the matrix were mixed. […] For each analysis, the laser spot randomly hit the sample to generate an averaged MALDI-TOF-MS spectrum. Three spectra were produced for each sample, and analyte to internal standard response ratios were averaged.
C6 cells (0.5×10^6/50 μL) were incubated with 10 μL 100 μM stock phosphonium salts solution (5 μM final concentration) and 140 μL HEPES buffer from 10 to 90 min at room temperature. The cells were centrifuged (250×g) for three minutes and washed twice with cold PBS buffer at specified times. Cell pellets were then lysed with 150 μL cold spectral grade water, followed by freezing in dry ice. Right before the MALDI-TOF-MS analysis, the frozen cell solution was thawed and centrifuged at 12000×g for 5 min. An aliquot of 90 μL of cell lysate and 10 μL of 10 μM internal standard MeTPP were mixed together, and 1 μL of solution was subjected to MALDI-TOF-MS analysis. Samples collected from three independent cell lysates were prepared for each study and subjected for MALDI-TOF-MS analysis.
Then they were diluted with C6 cell lysate (0.5×10^6 cells per 150 μL, these cells were not incubated with any phosphonium compound prior to lysis) to make various concentrations of compound and stored at 0° C. One micromolar MeTPP in 10 μL volume, which was used as internal standard, and 10 μL phosphonium cations with concentrations ranging from 0.1 μM-1.5 μM were mixed together thoroughly. Subsequently, 1 μL aliquot and 1 μL matrix αCHCA were deposited on the target plate and dried for MALDI-TOF-MS analysis. Triplicate samples were prepared and analyzed.

C6 cells [1] = assay: Mitochondrial and plasma membrane potential dependent uptake in C6 cells (CCCP, valinomycin, high K+ HEPES buffer), MALDI-TOF-MS; type: cell-based, rat; settings: for decrease in uptake on depolarization of the plasma membrane (high K+ vs low K+ buffer): 90 min exposure time; for effect of CCCP on uptake: CCCP at 1 μM concentration; for nature of uptake (membrane potential dependence): C6 cells, CCCP, valinomycin, high K+ buffer
Method: K^+-ionophore valinomycin was dissolved in ethanol and also diluted with low K^+ buffer. Final concentrations of ethanol and DMSO were below 0.1%. Varying concentrations of CCCP and valinomycin were added to the 0.5×10^6 cells in low K^+ HEPES buffer 30 min prior to the start of the experiment. […] The viability and the integrity of the cells after treatment with inhibitors and high K^+ buffer were examined using Trypan blue.

C6 cells [2] = assay: C6 cell uptake of 3H-TPP by scintillation counting; type: cell-based, rat; settings: 5 μM, 25° C., 90 min
Method: Cell Uptake of ^3H-tetraphenylphosphonium (^3H-TPP): C6 cell uptake of ^3H-TPP was also performed for direct comparison with cell uptakes of TPP and FTPP determined through MALDI-TOF-MS. Briefly, 0.5×10^6 cells were incubated with 5 μM ^3H-TPP [^3H-TPP was spiked with TPP to make a final concentration of 12.21 GBq/mmol (0.33 Ci/mmol)] from 10 to 90 min in a 200 μL HEPES buffer at room temperature. Cell lysate was prepared using the same procedure as described in the Cell Uptake Studies of Phosphonium Cations section, and the radioactivity of cell lysate was counted. Triplicate samples were obtained for all uptake studies. Data were expressed as the accumulation of the amount of probe in each cell or percent cell uptake (fmols/cell, % cell uptake). ^3H analyses were performed with a Beckman LS-6500 liquid scintillation counter with Biosafe II scintillation fluid (Research Products International, Mount prospect, Ill.). The attenuation and quenching effects resulting from the cell lysate used in this experiment were determined to be negligible, and the disintegration per minute (dpm) was obtained by correcting for background activity and efficiency (69.3% for ^3H).

## BrCCCC[P+](c1ccccc1)(c1ccccc1)c1ccccc1.[Br-] [BrTPP, (4-bromobutyl) triphenyl-phosphine bromide]
Rat glioma C6 cells; 5 μM, C6 cells
  uptake compared with tetraphenylphosphonium analogs (TPP and FTPP): much lower uptake

## Fc1ccc([P+](c2ccccc2)(c2ccccc2)c2ccccc2)cc1 [FTPP, 4-Fluorophenyltriphenyl phosphonium]
Rat glioma C6 cells; 5 μM, C6 cell culture
  accumulation relative to MeTPP: 8 times
Rat glioma C6 cells; 5 μM, C6 cells
  cell uptake relative to that of TPP: over 80%
  percent cell uptake: 9.33%
  cell uptake / accumulation (in words): good cell uptake; also recorded: higher C6 cell uptake than both F4TPP and FBnTP
C6 cells [1]; 5 μM probe, 10 μM valinomycin, low K+ HEPES buffer, one hour incubation
  normalized uptake in presence of valinomycin: about 72.8±3.6%
C6 cells [1]; 5 μM probe, 50 μM CCCP, low K+ HEPES buffer, one hour incubation
  normalized uptake in presence of CCCP: about 27.3±2.3%
C6 cells [1]; 5 μM probe
  decrease in uptake on depolarization of the plasma membrane (high K+ vs low K+ buffer): 3.5 fold
  effect of CCCP on uptake: significantly inhibited
C6 cells [1]; 5 μM probe, valinomycin at 1 μM concentration
  effect of valinomycin on uptake: significantly inhibited
C6 cells [1]
  nature of uptake (membrane potential dependence): electrogenic and driven by the plasma and mitochondrial membrane potentials

## [Br-].c1ccc([P+](c2ccccc2)(c2ccccc2)c2ccccc2)cc1 [TPP, tetraphenylphosphonium bromide, reference compound]
Rat glioma C6 cells; 5 μM, 10 mins post incubation
  amount accumulated per cell: 0.11 fmol TPP per cell
Rat glioma C6 cells; 5 μM, C6 cells
  incubation time to maximum / steady-state uptake: 60 min
  percent cell uptake: 11.44%

## C[P+](c1ccccc1)(c1ccccc1)c1ccccc1.[Br-] [MeTPP, methyltriphenyl phosphonium bromide, reference compound]
Rat glioma C6 cells; 5 μM, C6 cells
  percent cell uptake: 1.06%

## Fc1ccc(C[P+](c2ccccc2)(c2ccccc2)c2ccccc2)cc1.[I-] [FBnTP, 4-fluorobenzyl-triphenylphosphonium iodide]
Rat glioma C6 cells; 5 μM, C6 cells
  uptake compared with tetraphenylphosphonium analogs (TPP and FTPP): much lower uptake
C6 cells [1]; 5 μM probe
  decrease in uptake on depolarization of the plasma membrane (high K+ vs low K+ buffer): 1.5 fold
  effect of CCCP on uptake: can also be inhibited
C6 cells [1]
  nature of uptake (membrane potential dependence): electrogenic and driven by the plasma and mitochondrial membrane potentials

## O=C(O)CCCC[P+](c1ccccc1)(c1ccccc1)c1ccccc1.[Br-] [CoTPP, (4-carboxybutyl)triphenyl-phosphonium bromide]
Rat glioma C6 cells; 5 μM, C6 cells
  cell uptake / accumulation (in words): either does not accumulate or accumulates minimally
Rat glioma C6 cells; C6 cell lysate after incubation with compound
  detection of compound in cell lysate by MALDI-TOF-MS: could not be identified

## ^3H-tetraphenylphosphonium [^3H-TPP]
C6 cells [2]
  time course of uptake by scintillation counting compared with MALDI-TOF-MS of TPP: almost identical pattern and the same levels of uptake

## Cl.[Cl-].c1ccc([P+](Cc2ccccn2)(c2ccccc2)c2ccccc2)cc1 [PyTPP, triphenyl(2-pyridylmethyl)phosphonium chloride hydrochloride]
Rat glioma C6 cells; 5 μM, C6 cells
  uptake compared with tetraphenylphosphonium analogs (TPP and FTPP): much lower uptake

## Fc1ccc([P+](c2ccc(F)cc2)(c2ccc(F)cc2)c2ccc(F)cc2)cc1.[I-] [F4TPP, Tetra-4-fluorophenylphosphonium iodide]
C6 cells [1]; 5 μM probe
  decrease in uptake on depolarization of the plasma membrane (high K+ vs low K+ buffer): 3.0 fold
  effect of CCCP on uptake: can also be inhibited
C6 cells [1]
  nature of uptake (membrane potential dependence): electrogenic and driven by the plasma and mitochondrial membrane potentials

## CCCC[P+](c1ccccc1)(c1ccccc1)c1ccccc1.[Cl-] [BuTPP, butyltriphenylphosphonium chloride]
Rat glioma C6 cells; 5 μM, C6 cells
  uptake compared with tetraphenylphosphonium analogs (TPP and FTPP): much lower uptake

## CCCC[P+](CCCC)(CCCC)CCCC.[Br-] [TBuP, tetrabutylphosphonium bromide]
Rat glioma C6 cells; 5 μM, C6 cells
  decreased cellular accumulation compared to TPP: ~18 fold
  cell uptake / accumulation (in words): lower cell uptake
Rat glioma C6 cells; 5 μM, C6 cells, listed as TBuPP
  cell uptake / accumulation (in words): very low cell accumulaiton
